One compound from ChEMBL document CHEMBL1151902, “Discovery and SAR of cinnolines/quinolines as liver X receptor (LXR) agonists with binding selectivity for LXRbeta” (Bioorg Med Chem, 2009) can be followed below.

A short description of series [1]: Metabolic stability in mouse liver microsomes assessed as half life. It counts as ADME, Microsome. On the technique in general: Microsomes from liver hold many membrane-bound enzymes, among them those of drug oxidation.
A short description of series [2]: Aqueous solubility of the compound. It counts as physicochemical. As to conditions: buffer.

Converted amounts (≈) assume the structure as drawn.

A word on the half-life: it is the time needed for the level to fall by half in the phase considered. As usually defined, the solubility is the dissolved amount per volume that the medium holds. A higher solubility goes with a readily soluble substance. Turning to `Cn1ccc2cccc(COc3cccc(-c4c(Cc5ccccc5)nnc5c(C(F)(F)F)cccc45)c3)c21`, the half-life in series [1] was under 5 min. The compound also yielded a solubility in series [2] of 2 µg/mL (≈ 3.82 µM).
